We go through 8 compounds from US20230286995A1, “METABOLICALLY STABLE PYRIMIDINYL DIHYDROQUINOXALINONES AS TUBULIN POLYMERIZATION INHIBITORS” (UNIVERSITY OF TENNESSEE RESEARCH FOUNDATION, priority 2022, published 2023).

Structures can show the parent of a compound that is named as a salt. Where two headings read alike, the source gives them in different places.

One data set concerns A-253 and Detroit 562. Kind of data set: Cytotoxicity in head and neck cancer cell lines. The following applies: Homo sapiens; FIG. 39A; read-out: IC50 values, range over A-253 and Detroit 562. The data set is classed as cell-based. The procedure: A panel of dihydroquinoxalinones were tested in two head and neck cancer cell lines, A-253 and Detroit 562. A-253 cells are a human salivary epidermoid carcinoma cell line, whereas Detroit 562 is a head and neck squamous cell carcinoma (HNSCC). Oral cancer is the most common type of head and neck cancer and more than 90% of oral cancers are either oral or oropharyngeal squamous cell carcinoma (SCC). A major clinical dilemma is chemotherapy efficiency targeted for head and neck squamous cell carcinoma (HNSCC). The inability to successfully complete cancer treatment utilizing a standard surgical approach due to an advanced stage of HNSCC and/or resistance of SCC cells to conventional chemotherapy and/or radiotherapy leads to a continuous search for new compounds with cytostatic activity and minor side effects.
FIGS. 39B and 39C illustrate the graphical representation of the data. […] For example, at treatment levels as low of 0.5 nM, 12k was able to prevent head and neck cancer cell proliferation almost completely, whereas it required 5 nM of 17ya to achieve similar antiproliferation.

The test system of a further data set is M14/LCC6MDR1. Briefly: Cytotoxicity assay (MTS, 72 h). The format is cell-based. The following applies: Homo sapiens, read-out: IC50 ± SEM (nM) M14/LCC6MDR1.
The next data set deals with RPMI-7951. Briefly: Cytotoxicity assay (MTS, 72 h). The format is cell-based. The following applies: Homo sapiens, Table 1, read-out: IC50 (nM) Melanoma RPMI-7951.
The nature of a further data set: logP. The data set is classed as physicochemical. The settings on record: Table 1; method not described.
The next data set relates to A375/TxR. Kind of data set: Cytotoxicity assay (MTS, 72 h). The format is cell-based. The settings on record: Homo sapiens, read-out: IC50 ± SEM (nM) A375/TxR.
For another data set, the system named is MDA-MB-231/VxR. Kind of data set: Cytotoxicity assay (MTS, 72 h). The settings on record: Homo sapiens, MDA-MB-231, read-out: IC50 ± SEM (nM) MDA-MB-231/VXR. The format is cell-based.
The next data set concerns DU-145/VxR. Briefly: Cytotoxicity assay (MTS, 72 h). The data set is classed as cell-based. The following applies: Homo sapiens, DU-145, read-out: IC50 ± SEM (nM) DU-145/VXR.
Data set [1] concerns human melanoma and breast cancer cell lines. Briefly: Cytotoxicity, all tested cell lines of Table 1. The data set is classed as cell-based. The settings on record: Homo sapiens, melanoma and breast lines of Table 1; read-out: IC50 values, range over all tested cell lines.
Data set [2] concerns taxane-resistant melanoma, breast, and lung cancer cells. Kind of data set: Cytotoxicity, regular and taxane-resistant lines of Table 2. The following applies: Homo sapiens; taxane-resistant melanoma, breast, and lung cancer cells; read-out: IC50 values, range against taxane-resistant cells. The format is cell-based.
Data set [3] deals with T1, tubulin protein from bovine brain (Bos taurus, UniProt P81947+Q6B856).
T1 construct: tubulin protein from bovine brain origin; purchased Cytoskeleton, Denver, Colo; host or cells: bovine brain
T1 sequence (P81947 whole entry): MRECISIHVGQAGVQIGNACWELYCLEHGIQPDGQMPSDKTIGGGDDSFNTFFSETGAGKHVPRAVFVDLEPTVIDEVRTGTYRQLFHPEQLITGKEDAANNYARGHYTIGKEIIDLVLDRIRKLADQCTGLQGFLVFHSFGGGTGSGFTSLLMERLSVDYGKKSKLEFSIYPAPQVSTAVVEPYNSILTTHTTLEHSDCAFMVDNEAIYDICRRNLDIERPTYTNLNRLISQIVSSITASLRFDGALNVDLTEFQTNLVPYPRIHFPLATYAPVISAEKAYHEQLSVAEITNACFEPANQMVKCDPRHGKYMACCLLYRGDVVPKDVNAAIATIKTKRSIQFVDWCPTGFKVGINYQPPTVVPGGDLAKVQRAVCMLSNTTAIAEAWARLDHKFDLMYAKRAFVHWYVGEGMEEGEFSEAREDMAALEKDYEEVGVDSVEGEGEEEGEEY
T1 sequence (Q6B856 whole entry): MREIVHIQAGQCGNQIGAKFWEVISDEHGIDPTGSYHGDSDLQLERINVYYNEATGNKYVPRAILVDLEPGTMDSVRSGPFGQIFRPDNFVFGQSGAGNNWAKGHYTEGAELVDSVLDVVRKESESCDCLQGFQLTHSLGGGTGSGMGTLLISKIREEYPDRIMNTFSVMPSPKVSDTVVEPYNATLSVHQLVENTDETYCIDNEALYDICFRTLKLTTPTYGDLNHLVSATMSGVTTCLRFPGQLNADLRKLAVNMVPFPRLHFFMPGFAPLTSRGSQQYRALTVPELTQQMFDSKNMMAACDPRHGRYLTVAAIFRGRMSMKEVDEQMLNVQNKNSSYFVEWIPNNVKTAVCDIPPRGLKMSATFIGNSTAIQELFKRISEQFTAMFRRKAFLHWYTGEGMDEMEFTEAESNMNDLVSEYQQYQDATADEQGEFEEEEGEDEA
Kind of data set: Tubulin polymerization assay (FIG. 5A). The format is biochemical. The following applies: 10 μM, cell-free. The procedure: Tubulin polymerization reaction was initiated by adding 100 μL of tubulin protein from bovine brain origin (3 mg/ml, Cytoskeleton, Denver, Colo.) into 10 μM of test compounds in general tubulin buffer (80 mM PIPES, 2.0 mM MgCl2, 0.5 mM EGTA, and 1 mM GTP) according to the manufacturer protocol. The reaction kinetics were recorded in every thirty seconds for 1 h at 37° C. and a microplate reader equipped with absorbance settings at 340 nm wavelength was used for this purpose. The experiment was performed in duplicates.

In a further data set the test system is A549/TxR. Kind of data set: cells. The following applies: Homo sapiens, read-out: IC50 ± SEM (nM) A549/TxR.
The test system of the next data set is MDA-MB-231. Kind of data set: Cytotoxicity assay (MTS, 72 h). The format is cell-based. The settings on record: Homo sapiens.
In another data set the test system is MDA-MB-453. Briefly: Cytotoxicity assay (MTS, 72 h). The format is cell-based, human. The following applies: Homo sapiens, MDA-MB-453; Table 6; read-out: IC50 (nM) Breast Cancer MDA-MB-453.
The subject of a further data set is Mia PaCa-2. Kind of data set: Cytotoxicity assay (MTS, 72 h). The settings on record: Homo sapiens. The format is cell-based.
For the next data set, the system named is PANC-1. Briefly: Cytotoxicity assay (MTS, 72 h). The format is cell-based. The following applies: Homo sapiens. The method, then:
Mia PaCa-2 and PANC-1 cells were seeded in 96-well plates at 4000 and 5000 cells per well, respectively.
(§1) Cytotoxicity Assay. […] Each experiment consisted of four replicates.

The next data set relates to PC3. Kind of data set: Cytotoxicity assay (MTS, 72 h). The format is cell-based. The settings on record: Homo sapiens, PC-3; Table 6; read-out: IC50 (nM) Prostate cancer PC3.
Excerpt: as §1

In a further data set the test system is PC3/TxR. Briefly: Cytotoxicity assay (MTS, 72 h). The settings on record: Homo sapiens, Table 6, paclitaxel-resistant, read-out: IC50 (nM) Prostate cancer PC3/TxR. The data set is classed as cell-based. The method, then:
Biology. Cell culture and Reagents. […] MIA Paca-2 pancreatic cancer cells were cultured in media also supplemented with 2.5% horse serum. PANC-1 and PC-3 were cultured in RPMI 1640 medium (Gibco, Carlsbad, Calif.) supplemented with 10% FBS and 1% antibiotic/antimycotic mixture. […] For biological experiments, pyrimidine dihydroquinoxalinone derivatives were dissolved in DMSO to create 20 mM stock solutions and stored at −20° C. until use.
as §1

A short description of data set [4]: in vitro. The following applies: human, liver microsomes. A general note: Microsomes from liver hold many membrane-bound enzymes, among them those of drug oxidation.
Data set [5] is described as follows: in vitro. The settings on record: mouse, liver microsomes.
In another data set the test system is A375. Briefly: Cytotoxicity assay (MTS, 72 h). The settings on record: Homo sapiens.
The next data set relates to M14. Briefly: Cytotoxicity assay (MTS, 72 h). The settings on record: Homo sapiens.
The test system of data set [6] is melanoma, breast, pancreatic and prostate cancer cell lines. Kind of data set: Cytotoxicity of Example 8 compounds. The data set is classed as cell-based, human.
Excerpt: as §1

[7] abbreviates: MDA-MB-231, read-out: IC50 (nM) Breast Cancer MDA-MB-231, Table 6.

Regarding `CCNc1nc2c(c(N3CC(=O)Nc4cc(OC)ccc43)n1)CCC2` [5v HCl, 4-(2-(ethylamino)-6,7-dihydro-5H-cyclopenta[d]pyrimidin-4-yl)-7-methoxy-3,4-dihydroquinoxalin-2(1H)-one], in the data set on A-253 and Detroit 562, the IC50 lay in the range of 0.52 to 3.2 nM.

As to `COc1cc2c(c(OC)c1OC)-c1ccc(OC)c(=O)cc1[C@@H](NC(C)=O)CC2` [Colchicine, reference compound], the IC50 with M14/LCC6MDR1 was over 1000 nM.

The term logP denotes a log measure of how a compound divides between an organic and an aqueous phase. A higher logP goes with higher lipophilicity. Turning to `CCNc1nc(N2CC(=O)Nc3cc(OC)ccc32)c2ncccc2n1` [Compound 5t, 4-(2-(ethylamino)pyrido[3,2-d]pyrimidin-4-yl)-7-methoxy-3,4-dihydroquinoxalin-2(1H)-one], the IC50 with RPMI-7951 is 0.8 ± 0.1 nM; with A375/TxR (Table 2, paclitaxel-resistant), 1.3 nM; in the data set with MDA-MB-231/VxR, 2.9 ± 0.4 nM; with DU-145/VxR, 1.8 ± 0.4 nM; in [1] it was 0.4 to 26 nM; in data set [2] it was 0.3 to 5 nM. In addition, the IC50 in the data set with A549/TxR is 5.4 ± 1.7 nM. This compound also came in with a log partition coefficient (logP) in “logP” of 1.72. Further, the “effect on microtubule polymerization” value in [3] is recorded as “significantly inhibited microtubule polymerization”.

By half-life is commonly meant how long it takes for the measured level to halve. Low readings indicate fast loss, high ones slow loss. The term microsomal CLint denotes a measure of how fast metabolising enzymes remove a compound, apart from limits set by blood flow. Read a high microsomal CLint as rapid turnover. Take `COc1ccc2c(c1)NC(=O)CN2c1nc(NC2CC2)nc2c1CCC2` [Compound 12j, 4-(2-(cyclopropylamino)-6,7-dihydro-5H-cyclopenta[d]pyrimidin-4-yl)-7-methoxy-3,4-dihydroquinoxalin-2(1H)-one]: the IC50 with MDA-MB-231 (setting [7]) came to 2.2 ± 0.4 nM; in the data set on MDA-MB-453, 1.1 ± 0.3 nM; in the data set on Mia PaCa-2 (Table 6, read-out: IC50 (nM) Pancreatic cancer Mia PaCa-2), 3.9 ± 0.6 nM; in the data set with PANC-1 (Table 6, read-out: IC50 (nM) Pancreatic cancer PANC-1), 3.4 ± 0.6 nM; with PC3, 0.6 nM; in the data set on PC3/TxR, 0.2 nM. Besides, the IC50 in the data set with A375 (A-375, read-out: IC50 (nM) Melanoma Cancer A375, Table 6) is about 1.4 nM; in the data set with M14 (M14, read-out: IC50 (nM) Melanoma Cancer M14), 1.2 ± 0.3 nM. Besides, the half-life at 1 μg/mL was determined as 80.3 min in the data set “in vitro [4]” and 13.6 min in the data set “in vitro [5]”. For the same compound, the results for the microsomal CLint at 1 μg/mL in the data set “in vitro [4]” and in “in vitro [5]” were 8.68 µL/min/mg and 51 µL/min/mg, respectively.

Turning to `Cc1nc2c(c(N3CC(=O)Nc4cc(OCc5ccccc5)ccc43)n1)CCC2` [Compound 12p, 7-(benzyloxy)-4-(2-methyl-6,7-dihydro-5H-cyclopenta[d]pyrimidin-4-yl)-3,4-dihydroquinoxalin-2(1H)-one], the IC50 was 423 ± 110 nM with MDA-MB-231 (setting [7]); over 1250 nM in the data set on Mia PaCa-2 (Table 6, cells printed in μM, read-out: IC50 Pancreatic cancer Mia PaCa-2); over 1200 nM with PANC-1 (Table 6, cells printed in μM, read-out: IC50 Pancreatic cancer PANC-1). In addition, in data set [6], the “cytotoxic potency” value is given as “least in potency”.

Consider `COc1ccc(Nc2nc(OC)nc3c2CCC3)c(N)c1` [Compound 20, 4-methoxy-N1-(2-methoxy-6,7-dihydro-5H-cyclopenta[d]pyrimidin-4-yl)benzene-1,2-diamine], for which the “cytotoxic potency” value in [6] is recorded as “little to no cytotoxic activity”.

As to `CNC(=O)C(=O)Nc1cc(OC)ccc1Nc1nc(SC)nc2c1CCC2` [Compound 21, N1-(5-methoxy-2-((2-(methylthio)-6,7-dihydro-5H-cyclopenta[d]pyrimidin-4-yl)amino)phenyl)-N2-methyloxalamide], the “cytotoxic potency” value in data set [6] is “little to no cytotoxic activity”.

Take `COc1ccc(N(C)c2nc(C)nc3ccccc23)cc1` [Verubulin, N-(4-methoxyphenyl)-N,2-dimethylquinazolin-4-amine, reference compound]: the IC50 is 1.9 ± 0.4 nM with MDA-MB-231 (MDA-MB-231, read-out: IC50 ± SEM (nM) MDA-MB-231, Table 2); 0.7 ± 0.1 nM with A375/TxR; 2 ± 0.4 nM in the data set with MDA-MB-231/VxR; 0.7 ± 0.1 nM in the data set on A375 (A-375, read-out: IC50 ± SEM (nM) A375, Table 2); 1 ± 0.1 nM in the data set with M14 (M14, read-out: IC50 ± SEM (nM) M14).
